Reference: patent publication US9573960B2, “Glioblastoma inhibiting compounds and their use” (Life & Brain GmbH, priority 2011, dated 2017)
Like-named read-outs stand apart in the source and are kept apart here.

How the values were obtained:
[1] = tested on: four patient-specific primary GBM cultures
Experimental: (§1) Before screening, cell number was titrated for each cell line separately to ensure that cell proliferation remained in a linear-exponential phase throughout the experiment. 24 hours after seeding 2−3×10^3 cells/well into laminin/poly-L-ornithine coated 96-well plates, primary cultures were treated with 2 nM, 1 μM or 10 μM of each compound (stock solution 10 mM in DMSO). As a reference we treated cells with 50 μM and 500 μM temozolomide (TMZ, SigmaAldrich, Taufkirchen, Germany; stock solution of 100 mM in DMSO). Control cells were treated with 0.5-0.01% DMSO. Six days after application, cell viability was determined using the AlamarBlue® assay according to the manufacturers recommendations (Invitrogen, Karlsruhe, Germany). Fluorescence was measured using an Infinite200 microplate reader (Tecan, Crailsheim, Germany) at Xex=540 nm and Xem=590 nm. Experiments were performed in triplicates for each sample.
(§2) To identify cytotoxic and cytostatic compounds, we conducted in vitro drug-screening assays in four different patient-specific primary GBM cultures (see Table 1 for basic characterization of research specimens).
(§3) The compound library was screened at three different concentrations (10 μM, 1 μM, 2 nM). The relative metabolic activity was determined after a 5-day incubation with compounds. […] For reference, we applied 50 μM (reported plasma peak concentration) and 500 μM of temozolomide (TMZ, as described in Beier et al., 2008), the current standard chemotherapeutic GBM drug to our cells. […] However, “hits” in the setting of a primary screening were defined as a reduction of the relative metabolic activity under the level of 50% of DMSO-treated control cells.

[2] = tested on: glioma cell line U87; assay: Drug screening, AlamarBlue assay in U87; type: cell-based; details: Glioma cell, 144 h, read-out: reduction of the relative metabolic activity of U87
Experimental: Experiments were performed in triplicates for each sample.
For comparison with our four patient-specific primary GBM cell specimens, we used the commercially available glioma cell line U87 that is frequently investigated in drug discovery settings (FIG. 2).

[3] = tested on: patient-specific GBM primary cells; assay: Pharmacodynamic analysis of pristimerin, AlamarBlue (ICM50); type: cell-based; details: Homo sapiens, 120 h
Experimental: For pharmacodynamic analyses of pristimerin and niclosamide 5×10^4 cells were plated in 12 well plates 24 h before they were treated with concentrations indicated. 5 days after the treatment, cell viability was monitored by the AlamarBlue® assay. Experiments were performed in triplicates. The ICM50 is the concentration of agent that reduced the metabolic activity by 50% under the experimental conditions.
Pristimerin induces apoptosis in GBM primary cells. […] Because the peak plasma concentration of pristimerin is not yet known, we investigated a range of concentrations between 70 nM and 10 μM (FIG. 5). Under these conditions, pristimerin is potently cytotoxic at median ICM50's (half maximal inhibitory concentration of metabolic activity) of approximately 500 nM (FIG. 5a,b,d)

[4] = tested on: GBM primary cells (035, 046); assay: Long-term monitoring of cell confluency (CellaVista); type: cell-based, human; details: single dose 1 μM, post compound application
Experimental: FIG. 8: Long-term monitoring of cellular confluency post application of 1 μM pristimerin (dotted lines) in two independent GBM primary cell culture experiments (035=triangle; 046=squares) (solid line, 0.1% DMSO). Live cell-imaging was performed using the CellaVista system according to its specifications (Roche Diagnostics).
We used the CellaVistasystem (Roche Diagnostics, Mannheim) for monitoring of cell confluency as a surrogate analysis tool.

[5] = tested on: GBM primary cells under non-adherent conditions (neurospheres); assay: Pristimerin in 3D culture, non-adherent growth conditions (ICM50); type: cell-based; details: Homo sapiens, single dose, specimens 046, 078, 106
Excerpt: FIG. 11: Inhibition of GBM primary cells under adherent (solid line) vs. non-adherent (dotted line) conditions. Results represent the mean of triplicate-well-analysis for 3 different specimens at each concentration (046, 078, 106)
The GBM-inhibitory activity of Pristimerin was confirmed in 3D culture systems, i.e. non-adherent growth conditions (FIG. 11). Under anchorage-withdrawal, GBM cells form neurospheres, and investigation of their metabolic response patterns indicated a more resistant phenotype.

[6] = tested on: clonogenic, neurosphere-forming GBM cells; assay: Neurosphere assay after pristimerin; type: cell-based, human; details: single dose 1 μM, cases 046, 078, 106
Experimental: Based on previous investigations (Scheffler et al., 2005), a single cell suspension of 1×10^4 cells/cm^2 was diluted in 1% methylcellulose-containing PROL media provided with 20 ng/ml EGF/bFGF, and inoculated into nonadhesive culture dishes. 10 ng/ml EGF/bFGF was then added every other day. Neurospheres were quantified at 21 days in culture, triturated to a single cell suspension, which was used for plating under identical conditions and analysis of the formation of secondary or higher degree neurospheres. For analysis of multipotency, a representative fraction of 3° neurospheres were used. Neurospheres were plated onto laminin/poly-L-ornithine coated glass coverslips and, after attachment, provided with PROL media devoid of mitogens to allow differentiation for 2-3 weeks in culture before PFA-fixation and immunofluorescence analysis.
Furthermore, a single dose of pristimerin decreased the frequency of clonogenic, i.e. neurosphere-forming cells by 30-60% (FIG. 9a,b). Depletion of clonogenic cells was never observed at concentrations of […]. Clonogenic cells were always able to selfrenew and form higher-degree neurospheres that gave rise to immature neurons and astrocytes (FIG. 9c). These findings indicate that Pristimerin is not selectively inhibiting GBM cancer stem cells. […]

[7] = tested on: patient-specific GBM primary cultures; assay: AnnexinV-based FACS analysis of apoptosis; type: cell-based, human; details: 1 μM, 5-day exposure, in 7 out of 8 cultures
Experimental: […] 1×10^5 cells were sedimented by centrifugation, resuspended in […] AnnexinV buffer (BD Bioscience, Heidelberg, Germany) and incubated with 5 μl Annexin V-FITC (BD Bioscience, Heidelberg, Germany) for 1 h at RT. To distinguish between living and dead cells, labeling with 1.2 μg/ml bisbenzimide H33258 (Invitrogen, Karlsruhe, Germany) was used. Expression was determined using standard conditions in a LSRII equipped with FACSDiva Software (BD Bioscience, Heidelberg, Germany). For each measurement, 20.000 cells were counted. Annexin V positive cells, Annexin V and H33258 positive cells and H33258 positive cells were termed avital cells.
These effects could be validated as compound-specific, based on analysis of Pristimerin purchased from an independent supplier that yielded similar results (Sigma; FIG. 1b). For further experimentation, pristimerin was applied at 1 μM concentrations (FIG. 1c). […] In 7 out of 8 investigated patient-specific GBM primary cultures more than 50% of all cells could be classified as avital (FIG. 6; ***p<0.001, compared to their respective DMSO-treated control cells).

[8] = tested on: GBM primary cells; assay: Growth kinetic analysis (proliferation kinetics); type: cell-based, human; details: single dose 1 μM
Experimental: Five days after treatment in 6 cm dishes, 47,000 vital cells were plated into 3.5 cm laminin/poly-L-ornithine coated plastic dishes. 20 ng/ml EGF/bFGF were provided upon plating, and 10 ng/ml EGF/bFGF were added every other day thereafter. Four-to-six days later, adherent cells were trypsinized, harvested, counted, and plated at a density of 4.7×10^4 cells. This procedure was repeated for 4-5 passages. Mean values are presented with standard error.
Cells surviving the application of Pristimerin expand linearly on a logarithmic scale. There is an initial delay of cell growth lasting for a maximum of 10 days. However, thereafter, every patient-specific GBM primary culture we investigated thus far continued to proliferate as well as their respective DMSO-control (FIG. 7).

[9] = tested on: four patient-specific primary GBM cultures; assay: cells; details: Homo sapiens, read-out: cellular viability of pGBMs, control levels
Experimental: as §1, §2, §3

[10] = tested on: self-renewing, multipotent cells among pGBMs; assay: Neurosphere assay after GA or GAA pre-treatment; type: cell-based, human; details: single pre-treatment, vital cells collected at day 5
Excerpt: In a next series of experiments we aimed to determine the influence of the compounds on the activity of tumor-initiating cells (TICs). TICs embody a severe functional consequence of intra-tumor heterogeneity as, at least in human glioblastoma, it is anticipated that they are represented by a small subpopulation of stem-like, i.e. self-renewing and multipotent cells (e.g. Sties and Rowitch, 2008; Zhou et al., 2009). In previous work, we established their frequencies in the range from 0.25 to 1% among culture passage 5-10 pGBMs (see Glas et al., 2010). To estimate potential compound-induced alterations to the pool of self-renewing and multipotent cells in pGBMs, the neurosphere assay (NSA) was applied as recently described (Scheffler et al., 2005; Glas et al., 2010). Heterogeneous pGBM samples (#'s 046, 078, 106) were exposed to the compounds, vital cells were collected at day 5, and processed under non-adherent conditions in the NSA (neurosphere assay, see methods).
The neurosphere assay was performed to estimate the frequency of self-renewing clonogenic cells according to established protocols (Glas et al., 2010; Scheffler et al., 2005). Neurospheres were quantified at 21 days in culture, triturated to a single cell suspension, and re-plated for analysis of the secondary and tertiary neurospheres. […]

[11] = tested on: pGBMs (#046); assay: Orthotopic xenotransplantation of pre-treated pGBMs; type: in vivo, Rag2Il2rg−/− mice; details: pGBMs pre-treated 5 days at IMC50, 10^6 cells into striatum, vs DMSO
Experimental: FIG. 18: Gambogig acid amide decreases the tumor-initiating potential of pGBMs. pGBMs (#046) were treated with IMC50 concentrations of the respective compounds for 5 days in vitro. […] surviving vital cells were subsequently collected and injected into the striatum of adult immunocompromised mice (n=5 for each experiment). (A) Kaplan-Meier curves show no significant survival advantage upon injection of pGBMs pre-treated with gambogic acid (dotted) vs. DMSO controls (solid).
Cells were harvested, counted and re-suspended in 0.1% DNase/PBS. Cellular viability was confirmed via trypan blue exclusion. 10^6 DMSO-control-, gambogic acid or gambogic acid amide-pretreated pGBMs were injected stereotactically into the striatum of 12 week old Rag2Il2rg^−/− mice (0.8 mm anterior, 2 mm lateral, 3 mm deep). Mice were monitored daily and euthanized upon presentation with signs of distress/neurological symptoms or significant weight loss. For subsequent histological analysis, brains were removed, cryoprotected, and serially cut on a cryostat (Leica) at 20 μm thickness. Every fifth section underwent routine H&E staining for histological analysis of tumor formation.

[12] = tested on: CD133+ vs. CD133− pGBM cells; assay: CD133+ vs CD133- pGBM cells, metabolic activity and cell confluency; type: cell-based, human; details: IMC50, 5 days after single exposure
Excerpt: FIG. 19: Preferred targeting of CD133^+ GBM cells by Gambogig acid amide. (A) FACS-based identification and sorting of CD133^+ subpopulations from pGBMs (#106, top; #058, bottom). Note the respective frequency of CD133^+ cells is indicated within the panel). (B) Relative metabolic activity and cell confluency of CD133-positive vs. CD133-negative pGBM cells determined at 5 days after single exposure of Gambogic acid (IMC50, top) and Gambogic acid amide (IMC50, bottom). Note the selective sensitivity of CD133^+ cells in response to application of Gambogic acid amide.
To further corroborate the cancer stem cell-specific inhibitory activity of GAA, we selected CD133-positive and -negative cell populations from pGBMs (FIG. 19). CD133^+ cells are known among glioblastoma samples to represent a minority of tumorigenic stem-like phenotypes (Singh et al., 2004). Comparative evaluation of the inhibitory effects induced by GAA and GA on CD133^+ vs. CD133^− pGBM cells confirmed our assumption.
For fluorescence-activated cell separation (FACS), cells were stained with CD133/2-PE or with CD133/2-APC (both 1:20; Miltenyi Biotech) and sorted on a BD FACS DiVa Cell Sorter (Becton Dickinson).

[13] = tested on: patient-specific primary human glioblastoma cells (pGBMs); assay: Pharmacodynamic analysis of GAA and GA, AlamarBlue (IMC50); type: cell-based; details: FIG. 14A
Experimental: To validate the results obtained from primary screening, these compounds were purchased from independent suppliers (FIG. 13). Pharmacodynamic analysis was conducted by determining the concentrations that decreased the metabolic activity of pGBMs to 50% control levels (IMC50). […] For further analysis, pGBMs were collected at five days following single-dose in vitro application of the respective compound.
Considering the cellular and genetic diversity that characterizes GBM, we next investigated GAA's pharmacological effect in 17 pGBM samples derived from 11 patients (see Table 2 for list of samples and patient data). […] Next, pair-wise comparison of GAA-pharmacodynamics was performed in pGBMs to stratify results according to key clinical constellations (Bredel et al., 2011; Glas et al., 2010; Simpson et al., 2006; Weller et al., 2010). Glioblastoma samples derived from (i) the tumor center vs. periphery region of the same patient, (ii) primary vs. recurrent disease of the same patient, (iii) MGMT-promoter hypermethylated vs. unmethylated tissue, (iv) p53 wild type vs. p53 mutated samples, as well as from (v) NFKBIA wild type vs. NFKBIA deleted genotypes.
For pharmacodynamic analysis, 5×10^4 cells were plated in 12-well-plates at 24 hours before application of compound-series. […] Experiments were performed in triplicates. IMC50 was defined as the compound concentration that reduced the metabolic activity by 50% compared to control conditions and determined via data analysis in GraphPad Prism 4.0.

| SMILES | reduction of metabolic activity ([1]; case 023, 1 μM) [%] | reduction of metabolic activity ([1]; case 035, 1 μM) [%] | reduction of metabolic activity ([1]; case 046, 1 μM) [%] | reduction of metabolic activity ([1]; case 106, 1 μM) [%] | inhibition at 1 µM [2] [%] | IC50 ([3]; 70 nM to 10 μM, 5 days post application, read-out: median ICM50 (half maximal inhibitory concentration of metabolic activity)) [nM] | IC50 ([3]; Microsource compound, 5 days, read-out: median ICM50) [nM] | IC50 ([3]; Sigma compound, 5 days, read-out: median ICM50) [nM] | time before surviving cells take on proliferative activity [4] [days] | IC50 [5] [nM] | decrease of frequency of clonogenic, neurosphere-forming cells [6] | cells classified as avital [7] | initial delay of cell growth [8] [days] | viability at 1 µM [9] [%] | frequency of self-renewing, multipotent cells (primary, secondary, tertiary spheres) [10] | survival of animals that received pre-treated pGBMs [11] | selective reduction of cell growth and viability among CD133+ vs CD133− cells [12] | inhibition of the metabolic activity of pGBMs [13] |
| --- | --- | --- | --- | --- | --- | --- | --- | --- | --- | --- | --- | --- | --- | --- | --- | --- | --- | --- |
| COC(=O)[C@]1(C)CC[C@]2(C)CC[C@]3(C)C4=CC=C5C(=CC(=O)C(O)=C5C)[C@]4(C)CC[C@@]3(C)[C@@H]2C1 [Pristimerin] | 90 | 97 | 78 | 97 | ≤ 50 | ~500 | 580 | 430 | ≥ 10 | 1100 | 30-60% | more than 50% | ≤ 10 |  |  |  |  |  |
| CC(C)=CCC[C@]1(C)C=Cc2c(O)c3c(c(CC=C(C)C)c2O1)O[C@]12C(=C[C@@H]4C[C@H]1C(C)(C)O[C@@]2(C/C=C(/C)C(=O)O)C4=O)C3=O [GA, Gambogic acid] |  |  |  |  |  |  |  |  |  |  |  |  |  | < 50 | no GA-induced alteration | not evident | could not be revealed | effectively and to a comparable degree |
